Laboratory results: patent US20260297042A1, “BIARYLAMIDE DERIVATIVES AND THEIR USE AS PKMYT1 INHIBITORS” (CANCER RESEARCH TECHNOLOGY LIMITED, priority 2023, published 2026)

Molecular target: T1, Human PKMYT1 (Homo sapiens, UniProt Q99640)
T1 construct: Human PKMYT1 75-362 was cloned as a TEV cleavable 6xHis fusion; 6xHis (TEV cleavable) (cleaved yes); made in house; host or cells: bacterial cells
T1 sequence (Q99640 75-362): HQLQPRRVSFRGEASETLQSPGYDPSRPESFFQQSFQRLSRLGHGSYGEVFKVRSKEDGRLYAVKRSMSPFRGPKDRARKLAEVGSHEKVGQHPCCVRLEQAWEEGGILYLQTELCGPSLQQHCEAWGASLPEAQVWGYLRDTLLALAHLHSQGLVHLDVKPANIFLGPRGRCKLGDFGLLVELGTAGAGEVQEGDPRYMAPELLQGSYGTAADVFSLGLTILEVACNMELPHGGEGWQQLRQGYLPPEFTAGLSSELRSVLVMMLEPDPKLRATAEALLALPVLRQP
Experiment: PKMYT1 biochemical ADP-Glo enzymatic assay
Description: Human PKMYT1 75-362 was cloned as a TEV cleavable 6xHis fusion in bacterial cells. After purification on a Ni++HiTrap Chelating HP column, the His-tag was cleaved using TEV protease. Cleaved PKMYT1 was further purified on a Superdex 200 16/600 sizing column. The fractions containing PKMYT1 were pooled and concentrated using an ultrafiltration centrifugal protein concentrator. The purified protein was aliquoted, flash frozen in liquid nitrogen, and stored at −80° C.
PKMYT1 biochemical assay: Inhibition of PKMYT1 was assessed using the ADP-Glo™ Max Detection System from Promega. This assay detects the production of ADP from ATP by PKMYT1 via a two-step process ultimately involving the conversion of ADP to ATP with the latter converted to light in a coupled reaction with luciferase/luciferin. Inhibition of PKMYT1 by small molecule inhibitors results in a retardation of luminescence above background. The intrinsic ATPase activity of PKMYT1 was assessed according to the following protocol. Compounds were dosed into Corning white low volume 384 well assay plates using an Echo acoustic dispenser to generate 10-point curves spanning a 3-fold dilution series. DMSO (no inhibitor) control wells were prepared to benchmark the maximum and minimum signals in the presence and absence of PKMYT1, respectively. The PKMYT1 kinase domain was purified in-house, as described above, and added to the wells at a final concentration of 15 nM in a buffer of 50 mM HEPES (pH 7.5), 10 mM MgCl2, 1 mM EGTA, 0.01% Brij-35, 1% DMSO. 500 µM ATP was added to start the reaction with the final assay volume being 4 μl. The plate was then incubated for 60 minutes at 26° C. before the addition of 4 μl of ADP-Glo Reagent to stop the reaction and deplete the unconsumed ATP. Following a further 60 minute incubation the assay signal was developed by the addition of 8 μl ADP-Glo Max Detection Reagent. After 60 minutes the luminescence signal was read on a PHERAStar FS microplate reader (BMG Labtech).
Data analysis: Data was captured and analysed within the Dotmatics Studies software module where dose response curves were generated and IC50 values determined. Acceptance and verification of data followed strict in-house business rules which are summarised as follows. […] Technical and biological replicates of each compound are routinely tested and replicate IC50 values must fall within 3-fold of each other with dose response curves showing ‘goodness of fit’ r2 values >0.9. Failure to meet any of these defined criteria result in rejection of data.

[1] = PKMYT1 kinase domain 15 nM, ADP-Glo, banded values
[2] = ADP-Glo, 15 nM PKMYT1 kinase domain, 500 µM ATP, 60 minutes at 26° C., banded
[3] = PKMYT1 biochemical ADP-Glo enzymatic assay, Comparison Data 2
[4] = PKMYT1 biochemical ADP-Glo enzymatic assay, Comparison Data 1

Compound | IC50 [2] [nM] | other results
Cc1ccc(N2CCN(C3CC3)CC2)nc1Nc1ncc(C(=O)Nc2c(C)ccc(O)c2C)s1 [BAA-433, 2-((6-(4-cyclopropylpiperazin-1-yl)-3-methylpyridin-2-yl)amino)-N-(3-hydroxy-2,6-dimethylphenyl)thiazole-5-carboxamide] | – | IC50 [1]: < 50 nM
Cc1ccc(O)c(C)c1NC(=O)c1cnc(NCCc2ccc(C(F)(F)F)cc2)s1 [BAA-075, N-(3-hydroxy-2,6-dimethyl-phenyl)-2-[2-[4-(trifluoromethyl)phenyl]ethylamino]thiazole-5-carboxamide] | 1000 to 11000 | –
Cc1ccc(O)c(C)c1NC(=O)c1cnc(Nc2ccn([C@H]3CCOC3)n2)s1 [BAA-041] | 50 to 1000 | –
CCOC(=O)c1coc(Nc2ncc(C(=O)Nc3c(C)ccc(O)c3C)s2)n1 [BAA-045] | 50 to 1000 | –
Cc1ccc(O)c(C)c1NC(=O)c1cnc(Nc2cn[nH]c2)s1 [BAA-026, N-(3-hydroxy-2,6-dimethyl-phenyl)-2-(1H-pyrazol-4-ylamino)thiazole-5-carboxamide] | 1000 to 11000 | –
Cc1ccc(O)c(C)c1NC(=O)c1cnc(NCCC(C)(C)C)s1 [BAA-074, 2-(3,3-dimethylbutylamino)-N-(3-hydroxy-2,6-dimethyl-phenyl)thiazole-5-carboxamide] | 1000 to 11000 | –
Cc1ccc(O)c(C)c1NC(=O)c1cnc(NC2CCCCC2)s1 [BAA-064, 2-(cyclohexylamino)-N-(3-hydroxy-2,6-dimethyl-phenyl)thiazole-5-carboxamide] | 1000 to 11000 | –
Cc1cc(Cl)c(O)c(C)c1NC(=O)c1cnc(Nc2ccn(C)n2)s1 [BAA-547, N-(4-chloro-3-hydroxy-2,6-dimethylphenyl)-2-((1-methyl-1H-pyrazol-3-yl)amino)thiazole-5-carboxamide] | – | IC50 [1]: 1000 to 11000 nM
Cc1cccc(C)c1NC(=O)c1cnc(Nc2ccn(C)n2)s1 [REF-003, N-(2,6-Dimethylphenyl)-2-[(1-methylpyrazol-3-yl)amino]thiazole-5-carboxamide, reference compound] | – | IC50 [3]: 54300 nM
Cc1ccc(O)c(C)c1NC(=O)c1cnc(Nc2ccn(CCNC(=O)OC(C)(C)C)n2)s1 [BAA-020, tert-butyl N-[2-[3-[5-[(3-hydroxy-2,6-dimethyl-phenyl)carbamoyl]thiazol-2-yl]amino]pyrazol-1-ylethyl]carbamate] | 1000 to 11000 | –
Cc1ccc(O)c(C)c1NC(=O)c1cnc(Nc2ccc(-c3ccc(F)cc3)cn2)s1 [BAA-291, 2-((5-(4-fluorophenyl)pyridin-2-yl)amino)-N-(3-hydroxy-2,6-dimethylphenyl)thiazole-5-carboxamide] | 1000 to 11000 | –
Cc1ccc(O)c(C)c1NC(=O)c1cnc(N[C@@H]2CCN(C(=O)OC(C)(C)C)C2)s1 [BAA-050] | 1000 to 11000 | –
Cc1ccc(O)cc1NC(=O)c1cnc(N)s1 [REF-001, 2-Amino-N-(5-hydroxy-2-methyl-phenyl)thiazole-5-carboxamide, reference compound] | – | IC50 [4]: 53200 nM
Cc1ccc(O)c(C)c1NC(=O)c1cnc(NCC2CCN(C(=O)CN3CCOCC3)CC2)s1 [BAA-217, N-(3-hydroxy-2,6-dimethyl-phenyl)-2-[[1-(2-morpholinoacetyl)-4-piperidyl]methylamino]thiazole-5-carboxamide] | 50 to 1000 | –
Cc1ccc(O)c(C)c1NC(=O)c1cnc(NCC2CCN(C(=O)CN3CCCC3)CC2)s1 [BAA-211, N-(3-Hydroxy-2.6-dimethyl-phenyl)-2-[[1-(2-pyrrolidin-1-ylacetyl)-4-piperidyl]methylamino]thiazole-5-carboxamide] | 1000 to 11000 | –
Cc1ccc(O)c(C)c1NC(=O)c1cnc(Nc2ccccc2C(C)C)s1 [BAA-525, N-(3-hydroxy-2,6-dimethylphenyl)-2-((2-isopropylphenyl)amino)thiazole-5-carboxamide] | – | IC50 [1]: 1000 to 11000 nM
Cc1ccc(O)c(C)c1NC(=O)c1cnc(Nc2cc(CN3CCN(CCO)CC3)n(C)n2)s1 [BAA-052, N-(3-Hydroxy-2.6-dimethyl-phenyl)-2-[[5-[[4-(2-hydroxyethyl)piperazin-4-ium-1-yl]methyl]-1-methyl-pyrazol-3-yl]amino]thiazole-5-carboxamide] | 1000 to 11000 | –
Cc1cc(C)c(NC(=O)c2cnc(Nc3ccn(C)n3)s2)c(C)c1O [BAA-517, N-(3-Hydroxy-2,4,6-trimethylphenyl)-2-((1-methyl-1H-pyrazol-3-yl)amino)thiazole-5-carboxamide] | – | IC50 [1]: 1000 to 11000 nM
Cc1cc(-c2ccc(F)cc2)cnc1Nc1ncc(C(=O)Nc2c(C)ccc(O)c2C)s1 [BAA-292, 2-((5-(4-fluorophenyl)-3-methylpyridin-2-yl)amino)-N-(3-hydroxy-2,6-dimethylphenyl)thiazole-5-carboxamide] | 1000 to 11000 | –
CCN(c1ccc(F)cc1)c1ccc(Nc2ncc(C(=O)Nc3c(C)ccc(O)c3C)s2)nc1 [BAA-311, 2-((5-(ethyl(4-fluorophenyl)amino)pyridin-2-yl)amino)-N-(3-hydroxy-2,6-dimethylphenyl)thiazole-5-carboxamide] | 1000 to 11000 | –
Cc1ccc(O)c(C)c1NC(=O)c1cnc(NCCCO)s1 [BAA-069, N-(3-hydroxy-2,6-dimethyl-phenyl)-2-(3-hydroxypropylamino)thiazole-5-carboxamide] | 1000 to 11000 | –
COc1ccc(C)c(NC(=O)c2cnc(Nc3ccn(C)n3)s2)c1C [REF-004, N-(3-Methoxy-2,6-dimethyl-phenyl)-2-[(1-methylpyrazol-3-yl)amino]thiazole-5-carboxamide, reference compound] | – | IC50 [3]: > 100000 nM
CCN(CC)C(=O)Cn1nc(C(F)(F)F)cc1Nc1ncc(C(=O)Nc2c(C)ccc(O)c2C)s1 [BAA-561, 2-((1-(2-(diethylamino)-2-oxoethyl)-3-(trifluoromethyl)-1H-pyrazol-5-yl)amino)-N-(3-hydroxy-2,6-dimethylphenyl)thiazole-5-carboxamide] | – | IC50 [1]: 1000 to 11000 nM
Cc1ccc(O)c(C)c1NC(=O)c1cnc(Nc2ccn(CC(=O)NC[C@H](C)O)n2)s1 [BAA-174] | 50 to 1000 | –
Cc1c(O)cccc1NC(=O)c1cnc(N)s1 [REF-002, 2-Amino-N-(3-hydroxy-2-methyl-phenyl)thiazole-5-carboxamide, reference compound] | – | IC50 [4]: 26800 nM
CCN(c1ccc(F)cc1)c1cccc(Nc2ncc(C(=O)Nc3c(C)ccc(O)c3C)s2)n1 [BAA-312, 2-((6-(ethyl(4-fluorophenyl)amino)pyridin-2-yl)amino)-N-(3-hydroxy-2,6-dimethylphenyl)thiazole-5-carboxamide] | 1000 to 11000 | –
Cc1ccc(O)c(C)c1NC(=O)c1cnc(Nc2ccn([C@H]3CCCN(C(=O)OC(C)(C)C)C3)n2)s1 [BAA-039] | 1000 to 11000 | –
Cc1ccc(O)c(C)c1NC(=O)c1cnc(N[C@H]2CCN(C(=O)OC(C)(C)C)C2)s1 [BAA-049, tert-butyl (3S)-3-[5-[(3-hydroxy-2,6-dimethyl-phenyl)carbamoyl]thiazol-2-ylamino]pyrrolidine-1-carboxylate] | 1000 to 11000 | –
Cc1ccc(O)c(C)c1NC(=O)c1cnc(NCC2CCN(CC(=O)N(C)C)CC2)s1 [BAA-216, 2-[[1-[2-(dimethylamino)-2-oxo-ethyl]-4-piperidyl]methylamino]-N-(3-hydroxy-2,6-dimethyl-phenyl)thiazole-5-carboxamide] | 1000 to 11000 | –
Cc1ccc(O)c(C)c1NC(=O)c1cnc(NCC(N)=O)s1 [BAA-070, 2-[(2-amino-2-oxo-ethyl)amino]-N-(3-hydroxy-2,6-dimethyl-phenyl)thiazole-5-carboxamide] | 1000 to 11000 | –
